Experiments:
[1] = Cytotoxicity against Pgp deficient human LCC6 cells after 72 hrs by sulforhodamine B test; type: functional, cell-based; conditions: C6, 72 h
[2] = tested on: C6; experiment: Resistance index, Ratio of IC50 for multidrug resistant Pgp expressing human LCC6 cells to IC50 for Pgp deficient human LCC6 cells; type: functional; set-up: reference not given here
[3] = Cytotoxicity against multidrug resistant Pgp expressing human LCC6 cells after 72 hrs by sulforhodamine B test; type: functional, cell-based; conditions: LCC-6, 72 h
[4] = tested on: MCF7; experiment: Cytotoxicity against Pgp deficient human MCF7 cells after 72 hrs by sulforhodamine B test; type: functional, cell-based; conditions: MCF7, 72 h
[5] = Cytotoxicity against multidrug resistant Pgp expressing human NCI/ADR cells after 72 hrs by sulforhodamine B test; type: functional, cell-based; conditions: NCI/ADR-RES
[6] = tested on: MCF7; experiment: Resistance index, Ratio of IC50 for multidrug resistant Pgp expressing human NCI/ADR cells to IC50 for Pgp deficient human MCF7 cells; type: functional; set-up: reference not given here

| Structure (SMILES) | IC50 [1] [nM] | Ratio IC50 [2] | IC50 [3] [nM] | IC50 [4] [nM] | IC50 [5] [nM] | Ratio IC50 [6] |
| --- | --- | --- | --- | --- | --- | --- |
| CCC(=O)O[C@H]1C(=O)[C@@]2(C)[C@H]([C@H](OC(=O)c3cccc(F)c3)[C@]3(O)C[C@H](OC(=O)[C@H](O)[C@H](CC(C)C)NC(=O)OC(C)(C)C)C(C)=C1C3(C)C)[C@]1(OC(C)=O)CO[C@@H]1C[C@@H]2O | 0.4 |  |  |  |  |  |
| COc1cccc(C(=O)O[C@H]2C(=O)[C@@]3(C)[C@H]([C@H](OC(=O)c4ccccc4)[C@]4(O)C[C@H](OC(=O)[C@H](O)[C@H](C=C(C)C)NC(=O)OC(C)(C)C)C(C)=C2C4(C)C)[C@]2(OC(C)=O)CO[C@@H]2C[C@@H]3O)c1 | 2.8 | 1.8 | 5.1 |  |  |  |
| COc1cccc(C(=O)O[C@H]2[C@@H]3[C@]4(OC(C)=O)CO[C@@H]4C[C@H](O)[C@@]3(C)C(=O)[C@H](OC(C)=O)C3=C(C)[C@@H](OC(=O)[C@H](O)[C@H](C=C(C)C)NC(=O)OC(C)(C)C)C[C@]2(O)C3(C)C)c1 | 0.6 |  |  | 0.8 | 2.3 |  |
| C=Cc1cccc(C(=O)O[C@H]2[C@@H]3[C@]4(OC(C)=O)CO[C@@H]4C[C@H](O)[C@@]3(C)C(=O)[C@H](OC(=O)CC)C3=C(C)[C@@H](OC(=O)[C@H](O)[C@H](C=C(C)C)NC(=O)OC(C)(C)C)C[C@]2(O)C3(C)C)c1 | 2.9 |  |  |  |  |  |
| C/C=C/[C@H](NC(=O)OC(C)(C)C)[C@@H](O)C(=O)O[C@H]1C[C@@]2(O)[C@@H](OC(=O)c3cccc(OC)c3)[C@@H]3[C@]4(OC(C)=O)CO[C@@H]4C[C@H](O)[C@@]3(C)C(=O)[C@H](OC(=O)CC)C(=C1C)C2(C)C | 1.2 |  |  |  |  |  |
| CCC(=O)O[C@H]1C(=O)[C@@]2(C)[C@H]([C@H](OC(=O)c3cccc(F)c3)[C@]3(O)C[C@H](OC(=O)[C@H](O)[C@H](C=C(C)C)NC(=O)OC(C)(C)C)C(C)=C1C3(C)C)[C@]1(OC(C)=O)CO[C@@H]1C[C@@H]2O | 0.5 |  |  |  |  |  |
| COc1ccc(CCC(=O)O[C@H]2C(=O)[C@@]3(C)[C@H]([C@H](OC(=O)c4ccccc4)[C@]4(O)C[C@H](OC(=O)[C@H](O)[C@H](C=C(C)C)NC(=O)OC(C)(C)C)C(C)=C2C4(C)C)[C@]2(OC(C)=O)CO[C@@H]2C[C@@H]3O)cc1 | 1.7 | 2.9 | 4.9 |  |  |  |
| CC(=O)O[C@@]12CO[C@@H]1C[C@H](O)[C@@]1(C)C(=O)[C@H](O)C3=C(C)[C@@H](OC(=O)[C@H](O)[C@@H](NC(=O)OC(C)(C)C)c4ccccc4)C[C@@](O)([C@@H](OC(=O)c4ccccc4)[C@H]21)C3(C)C.O.O.O [DOCETAXEL] | 1 |  | 120 |  |  |  |
| C=CC[C@H](NC(=O)OC(C)(C)C)[C@@H](O)C(=O)O[C@H]1C[C@@]2(O)[C@@H](OC(=O)c3cccc(OC)c3)[C@@H]3[C@]4(OC(C)=O)CO[C@@H]4C[C@H](O)[C@@]3(C)C(=O)[C@H](OC(=O)CC)C(=C1C)C2(C)C | 1.2 |  |  | 0.8 | 8.7 |  |
| CC(=O)O[C@@]12CO[C@@H]1C[C@H](O)[C@@]1(C)C(=O)[C@H](OC(=O)CCc3ccccc3)C3=C(C)[C@@H](OC(=O)[C@H](O)[C@H](C=C(C)C)NC(=O)OC(C)(C)C)C[C@@](O)([C@@H](OC(=O)c4ccccc4)[C@H]21)C3(C)C | 5.1 | 6.1 | 31.2 |  |  |  |
| COc1ccccc1C(=O)O[C@H]1C(=O)[C@@]2(C)[C@H]([C@H](OC(=O)c3ccccc3)[C@]3(O)C[C@H](OC(=O)[C@H](O)[C@H](C=C(C)C)NC(=O)OC(C)(C)C)C(C)=C1C3(C)C)[C@]1(OC(C)=O)CO[C@@H]1C[C@@H]2O | 2.1 | 2.7 | 5.8 |  |  |  |
| CCC(=O)O[C@H]1C(=O)[C@@]2(C)[C@H]([C@H](OC(=O)c3ccccc3)[C@]3(O)C[C@H](OC(=O)[C@H](O)[C@H](CC(C)C)NC(=O)OC(C)(C)C)C(C)=C1C3(C)C)[C@]1(OC(C)=O)CO[C@@H]1C[C@@H]2O |  |  |  |  | 5.1 | 15 |
| CCC(=O)O[C@H]1C(=O)[C@@]2(C)[C@H]([C@H](OC(=O)c3ccccc3)[C@]3(O)C[C@H](OC(=O)[C@H](O)[C@H](C=C(C)C)NC(=O)OC(C)(C)C)C(C)=C1C3(C)C)[C@]1(OC(C)=O)CO[C@@H]1C[C@@H]2O |  |  |  |  | 4 | 22 |
| COc1cccc(C(=O)O[C@H]2[C@@H]3[C@]4(OC(C)=O)CO[C@@H]4C[C@H](O)[C@@]3(C)C(=O)[C@H](OC(=O)C3CC3)C3=C(C)[C@@H](OC(=O)[C@H](O)[C@H](C=C(C)C)NC(=O)OC(C)(C)C)C[C@]2(O)C3(C)C)c1 | 1 | 2.9 | 2.9 |  |  |  |
| COc1cccc(CC(=O)O[C@H]2C(=O)[C@@]3(C)[C@H]([C@H](OC(=O)c4ccccc4)[C@]4(O)C[C@H](OC(=O)[C@H](O)[C@H](C=C(C)C)NC(=O)OC(C)(C)C)C(C)=C2C4(C)C)[C@]2(OC(C)=O)CO[C@@H]2C[C@@H]3O)c1 | 2.1 | 9.7 | 20.3 |  |  |  |
| C=CCC[C@H](NC(=O)OC(C)(C)C)[C@@H](O)C(=O)O[C@H]1C[C@@]2(O)[C@@H](OC(=O)c3cccc(OC)c3)[C@@H]3[C@]4(OC(C)=O)CO[C@@H]4C[C@H](O)[C@@]3(C)C(=O)[C@H](OC(=O)CC)C(=C1C)C2(C)C | 0.9 |  |  | 2 | 7.7 |  |
| CC(=O)O[C@@]12CO[C@@H]1C[C@H](O)[C@@]1(C)C(=O)[C@H](OC(=O)c3cccc4ccccc34)C3=C(C)[C@@H](OC(=O)[C@H](O)[C@H](C=C(C)C)NC(=O)OC(C)(C)C)C[C@@](O)([C@@H](OC(=O)c4ccccc4)[C@H]21)C3(C)C | 5.3 | 2.9 | 15.2 |  |  |  |
| COc1cccc(CCC(=O)O[C@H]2C(=O)[C@@]3(C)[C@H]([C@H](OC(=O)c4ccccc4)[C@]4(O)C[C@H](OC(=O)[C@H](O)[C@H](C=C(C)C)NC(=O)OC(C)(C)C)C(C)=C2C4(C)C)[C@]2(OC(C)=O)CO[C@@H]2C[C@@H]3O)c1 | 3.7 | 1.8 | 6.7 |  |  |  |
| COc1ccccc1CC(=O)O[C@H]1C(=O)[C@@]2(C)[C@H]([C@H](OC(=O)c3ccccc3)[C@]3(O)C[C@H](OC(=O)[C@H](O)[C@H](C=C(C)C)NC(=O)OC(C)(C)C)C(C)=C1C3(C)C)[C@]1(OC(C)=O)CO[C@@H]1C[C@@H]2O | 2.3 | 6 | 13.8 |  |  |  |
| CCC(=O)O[C@H]1C(=O)[C@@]2(C)[C@H]([C@H](OC(=O)c3cccc(Cl)c3)[C@]3(O)C[C@H](OC(=O)[C@H](O)[C@H](C=C(C)C)NC(=O)OC(C)(C)C)C(C)=C1C3(C)C)[C@]1(OC(C)=O)CO[C@@H]1C[C@@H]2O | 0.8 |  |  |  |  |  |
| CCC(=O)O[C@H]1C(=O)[C@@]2(C)[C@H]([C@H](OC(=O)c3cccc(N=[N+]=[N-])c3)[C@]3(O)C[C@H](OC(=O)[C@H](O)[C@H](CC(C)C)NC(=O)OC(C)(C)C)C(C)=C1C3(C)C)[C@]1(OC(C)=O)CO[C@@H]1C[C@@H]2O | 1.1 |  |  | 1 | 2.1 |  |
| CCC(=O)O[C@H]1C(=O)[C@@]2(C)[C@H]([C@H](OC(=O)c3cccc(OC)c3)[C@]3(O)C[C@H](OC(=O)[C@H](O)[C@@H](NC(=O)OC(C)(C)C)[C@H]4CC4(C)C)C(C)=C1C3(C)C)[C@]1(OC(C)=O)CO[C@@H]1C[C@@H]2O | 0.48 |  |  | 0.6 | 1.5 |  |
| CC(=O)O[C@@]12CO[C@@H]1C[C@H](O)[C@@]1(C)C(=O)[C@H](OC(=O)c3ccccc3)C3=C(C)[C@@H](OC(=O)[C@H](O)[C@H](C=C(C)C)NC(=O)OC(C)(C)C)C[C@@](O)([C@@H](OC(=O)c4ccccc4)[C@H]21)C3(C)C | 1.8 | 2.7 | 4.8 |  |  |  |
| CC(=O)O[C@@]12CO[C@@H]1C[C@H](O)[C@@]1(C)C(=O)[C@H](OC(=O)c3ccc4ccccc4c3)C3=C(C)[C@@H](OC(=O)[C@H](O)[C@H](C=C(C)C)NC(=O)OC(C)(C)C)C[C@@](O)([C@@H](OC(=O)c4ccccc4)[C@H]21)C3(C)C | 6.3 | 2.4 | 15.2 |  |  |  |
| COc1ccccc1CCC(=O)O[C@H]1C(=O)[C@@]2(C)[C@H]([C@H](OC(=O)c3ccccc3)[C@]3(O)C[C@H](OC(=O)[C@H](O)[C@H](C=C(C)C)NC(=O)OC(C)(C)C)C(C)=C1C3(C)C)[C@]1(OC(C)=O)CO[C@@H]1C[C@@H]2O | 1.5 | 3.3 | 5 |  |  |  |
| CC(=O)O[C@@]12CO[C@@H]1C[C@H](O)[C@@]1(C)C(=O)[C@H](OC(=O)OCc3ccccc3)C3=C(C)[C@@H](OC(=O)[C@H](O)[C@H](C=C(C)C)NC(=O)OC(C)(C)C)C[C@@](O)([C@@H](OC(=O)c4ccccc4)[C@H]21)C3(C)C | 1.8 | 9.3 | 16.7 |  |  |  |
| COc1ccc(C(=O)O[C@H]2C(=O)[C@@]3(C)[C@H]([C@H](OC(=O)c4ccccc4)[C@]4(O)C[C@H](OC(=O)[C@H](O)[C@H](C=C(C)C)NC(=O)OC(C)(C)C)C(C)=C2C4(C)C)[C@]2(OC(C)=O)CO[C@@H]2C[C@@H]3O)cc1 | 3.8 | 1.2 | 4.7 |  |  |  |
| CC(=O)O[C@H]1C(=O)[C@@]2(C)[C@H]([C@H](OC(=O)c3cccc(C)c3)[C@]3(O)C[C@H](OC(=O)[C@H](O)[C@H](C=C(C)C)NC(=O)OC(C)(C)C)C(C)=C1C3(C)C)[C@]1(OC(C)=O)CO[C@@H]1C[C@@H]2O | 1.5 |  |  | 0.8 | 5 |  |
| CCC(=O)O[C@H]1C(=O)[C@@]2(C)[C@H]([C@H](OC(=O)c3cccc(N=[N+]=[N-])c3)[C@]3(O)C[C@H](OC(=O)[C@H](O)[C@H](C=C(C)C)NC(=O)OC(C)(C)C)C(C)=C1C3(C)C)[C@]1(OC(C)=O)CO[C@@H]1C[C@@H]2O | 0.9 |  |  | 0.9 | 1.1 |  |
